Data reported in patent publication US11826400B2, “Neuregulin based compositions and uses thereof for preventing, treating or delaying the myocardial ischemia-reperfusion injury” (ZENSUN (SHANGHAI) SCIENCE & TECHNOLOGY LIMITED, priority 2010, dated 2023).

Test system: myocardial ischemia reperfusion in rat
Test: Therapeutic effect on myocardial ischemia reperfusion in rat (coronary ligation 45 min, reperfusion 2 h, TCC staining of heart sections)
Assay type: in vivo, Wistar rats
Conditions: Group D
Description: Wistar rats (male, 200˜240 g) were divided into groups and administered with different dosages of rhNRG-1, placebo or rhThymosin-β4 (as shown in Table 1) after anaesthetized with intra-abdominal injection of 20% urethane (5 ml/kg). Thirty minutes after the drug started to be given to the rats, the anterior descending limb of the left coronary artery was ligated for 45 minutes to cause partial myocardium turned white obviously in the ligation area. After that the ligation thread was loosen to keep coronary blood flow for 2 hours and then take out the heart rapidly and wash vascular fat away with normal saline, and then freeze the heart in −30° C. for one hour.
Cut the heart parallelly from apex to base along coronary sulcus to myocardium sections with the thickness of 1 mm, and then put them into TCC dye liquor for 20 min in 37° C. in a shaker. After staining extra dye was washed immediately with water, and then the sections were put into 4% formalin for one hour. Photo and analyze the total size and the infarction size of were analyzed with Image Analysis Software. Infarction size ratio equals to the ratio of the infarction size and the total size of the myocardium section.

In the case of “rhThymosin-β4: produced by Northland (Beijing) Bio-Technology Co Ltd, batch number: 20050728; comparator drug of Group D (SDKPDMAEIEKFDKSKLKKTETQEKNPLPSKETIEQEKQAGES; Thymosin beta-4; UniProt P62328 2-44, looked up)”, the “Infarction size compared with other groups” value (2.5 mg/kg single intraperitoneal injection) is reported as “no significant difference with other groups” and the “The myocardium infarction size ratio” value (2.5 mg/kg single intraperitoneal injection 30 min before ligation, infarction size / total size of myocardium section, mean ± spread, 2.5 mg/kg) is reported as 0.151±0.030.
